Measured values as given in patent US20180215734A1, “PYRIMIDINE DERIVATIVES AS KINASE INHIBITORS AND THEIR THERAPEUTICAL APPLICATIONS” (NantBioScience, Inc., priority 2016, published 2018).
Where two headings read alike, the source gives them in different places.

Experiments:
Kato III = assay: Inhibition of proliferation (CellTiterblue, 72 hr), Kato III; assay type: cell-based
Protocol: (§1) A number of studies were performed to analyze the consequences of tyrosine kinase inhibition in cell lines. To do this, 1000 cells are seeded in 27 μl/well in 384-well microplates, which are then placed in a humidified CO2 incubator at 37° C. overnight. The next day, 3 μl/well of 10× concentrated drug is added and the plates are returned to the incubator for 72 hr. After 72 hr incubation, plates are removed and 6 μl/well CellTiterblue (Promega) viability reagent is added. Plates are returned to the incubator for 3 hrs, after which fluorescence measurements are read on the Victor X3 plate reader (Perkin Elmer). Data are analyzed using Excel (Microsoft), and GI50 values are determined using Prism (Graphpad).

RT112 = assay: Inhibition of proliferation (CellTiterblue, 72 hr), RT112; assay type: cell-based
Protocol: as §1

FGFR1(h) = FGFR1(h) (Homo sapiens, UniProt P11362); assay: Kinase assay, FGFR1(h); assay type: biochemical; conditions: 1 μM
Chain of FGFR1(h) (P11362 22-822): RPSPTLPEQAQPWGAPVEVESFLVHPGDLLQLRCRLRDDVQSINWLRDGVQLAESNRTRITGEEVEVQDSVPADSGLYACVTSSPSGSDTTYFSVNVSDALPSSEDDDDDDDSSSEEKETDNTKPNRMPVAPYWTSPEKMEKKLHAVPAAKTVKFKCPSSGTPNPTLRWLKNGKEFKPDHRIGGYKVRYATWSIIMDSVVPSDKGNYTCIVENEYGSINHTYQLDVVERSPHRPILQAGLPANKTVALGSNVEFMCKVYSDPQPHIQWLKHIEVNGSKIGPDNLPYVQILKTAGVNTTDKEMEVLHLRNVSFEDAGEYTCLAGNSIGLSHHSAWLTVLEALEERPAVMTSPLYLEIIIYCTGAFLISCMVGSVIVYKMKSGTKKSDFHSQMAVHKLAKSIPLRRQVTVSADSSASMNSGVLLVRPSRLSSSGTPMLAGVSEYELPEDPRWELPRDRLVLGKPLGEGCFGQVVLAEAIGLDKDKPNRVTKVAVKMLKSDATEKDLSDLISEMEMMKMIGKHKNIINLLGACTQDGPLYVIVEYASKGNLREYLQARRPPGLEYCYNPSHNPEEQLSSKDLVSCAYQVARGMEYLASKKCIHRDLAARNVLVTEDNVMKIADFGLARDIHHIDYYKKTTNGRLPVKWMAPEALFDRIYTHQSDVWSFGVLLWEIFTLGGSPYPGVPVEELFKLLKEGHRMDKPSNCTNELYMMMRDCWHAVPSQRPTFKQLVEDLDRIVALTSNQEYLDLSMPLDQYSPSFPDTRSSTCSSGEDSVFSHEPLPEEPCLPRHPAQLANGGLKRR
Protocol: (§2) Kinase assay protocols well known to those of ordinary skill in the art were used. Specifically, the buffer composition was as follows: 20 mM MOPS, 1 mM EDTA, 0.01% Brij-35, 5% Glycerol, 0.1% β-mercaptoethanol, 1 mg/mL BSA. Test compounds were initially dissolved in DMSO at the desired concentration, then serially diluted to the kinase assay buffer. In a final reaction volume of 25 μL FGFR1(h) (5-10 mU) and KDR(h) (5-10 mU) are incubated with 8 mM MOPS pH 7.0, 0.2 mM EDTA, 200 μM LRRASLG (Kemptide), 10 mM magnesium acetate and [γ^33P-ATP]. The reaction was initiated by the addition of the MgATP mix. After incubation for 40 minutes at room temperature, the reaction was stopped by addition of 5 μL of a 3% phosphoric acid solution. Ten L of the reaction was then spotted onto a P30 filter mat and washed three times for 5 minutes in 50 mM phosphoric acid and once in methanol prior to drying and scintillation counting. Wells containing substrate but no kinase and wells containing a phosphopeptide control were used to set 0% and 100% phosphorylation value, respectively.
(§3) Of all of the steps in developing a drug, the hardest is finding promising compounds. (See, e.g., Malo et al., “Statistical practice in high-throughput screening data analysis,” Nature Biotechnology, 2006, 24, 167-75.) Kinase inhibitors often also have an anti-proliferative effect. […] The kinase inhibitory activity Compound 19 was tested using the kinase assay described in Example 3. […] These mutations in the tested kinases are thought to play an important role in transformation of some cancers.

SNU16 = assay: Inhibition of proliferation (CellTiterblue, 72 hr), SNU16; assay type: cell-based
Protocol: as §1

TG1a Human AML Xenograft = assay: Antitumor efficacy on TG1a human AML xenograft; assay type: in vivo, mouse; conditions: 20 mg/kg, Qdx10, IP
Protocol: In this Example the antitumor activity of compounds 14, 17, 19, 45, and 48 of the current invention are tested using an art-recognized xenograft model of AML. (“T/C” refers to the ratio of the tumor's size in treated animals versus the tumor size in control untreated animals. “BWC” refers to “body weight change”).

KDR(h) = KDR(h) (Homo sapiens, UniProt P35968); assay: Kinase assay, KDR(h); assay type: biochemical
Chain of KDR(h) (P35968 20-1356): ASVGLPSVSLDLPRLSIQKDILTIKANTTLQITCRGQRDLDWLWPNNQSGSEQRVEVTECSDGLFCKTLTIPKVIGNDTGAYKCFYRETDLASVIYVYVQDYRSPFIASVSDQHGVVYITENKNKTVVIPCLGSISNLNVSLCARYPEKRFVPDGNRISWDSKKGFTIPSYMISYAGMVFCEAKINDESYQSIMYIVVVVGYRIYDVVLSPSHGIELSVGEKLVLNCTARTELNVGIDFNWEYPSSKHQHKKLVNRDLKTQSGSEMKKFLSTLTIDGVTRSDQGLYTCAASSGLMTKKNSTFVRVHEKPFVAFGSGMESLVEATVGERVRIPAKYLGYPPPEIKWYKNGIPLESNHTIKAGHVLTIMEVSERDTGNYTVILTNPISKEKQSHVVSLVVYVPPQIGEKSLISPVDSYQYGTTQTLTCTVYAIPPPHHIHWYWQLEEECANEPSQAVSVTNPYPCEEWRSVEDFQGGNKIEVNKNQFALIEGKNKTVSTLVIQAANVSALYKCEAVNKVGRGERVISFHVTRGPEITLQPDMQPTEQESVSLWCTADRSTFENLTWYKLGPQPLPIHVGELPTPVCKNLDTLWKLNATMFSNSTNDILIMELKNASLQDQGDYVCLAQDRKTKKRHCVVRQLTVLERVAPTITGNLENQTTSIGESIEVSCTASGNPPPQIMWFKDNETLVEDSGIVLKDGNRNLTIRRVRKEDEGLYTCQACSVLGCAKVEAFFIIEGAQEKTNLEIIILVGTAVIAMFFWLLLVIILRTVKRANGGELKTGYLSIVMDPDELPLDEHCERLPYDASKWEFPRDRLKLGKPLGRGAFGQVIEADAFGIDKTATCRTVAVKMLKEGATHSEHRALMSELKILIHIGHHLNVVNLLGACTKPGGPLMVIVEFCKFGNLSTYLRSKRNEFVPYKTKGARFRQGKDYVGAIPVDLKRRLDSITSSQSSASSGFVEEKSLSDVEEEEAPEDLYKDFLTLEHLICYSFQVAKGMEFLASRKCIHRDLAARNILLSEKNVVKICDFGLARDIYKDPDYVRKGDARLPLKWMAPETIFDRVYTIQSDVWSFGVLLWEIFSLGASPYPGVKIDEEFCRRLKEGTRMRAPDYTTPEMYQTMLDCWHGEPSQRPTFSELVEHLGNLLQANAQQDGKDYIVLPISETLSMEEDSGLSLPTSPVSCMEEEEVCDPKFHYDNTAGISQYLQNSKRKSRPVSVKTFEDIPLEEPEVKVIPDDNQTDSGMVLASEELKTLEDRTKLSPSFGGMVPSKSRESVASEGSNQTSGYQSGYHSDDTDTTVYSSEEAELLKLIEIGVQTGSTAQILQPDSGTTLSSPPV
Protocol: as §2, §3

KG1a = assay: Inhibition of proliferation (CellTiterblue, 72 hr), KG1a; assay type: cell-based, human; conditions: 72 hr
Protocol: as §1

[1] = Metabolic stability, human liver microsomes; assay type: in vitro ADME
[2] = Metabolic stability, mouse liver microsomes; assay type: in vitro ADME
[3] = Metabolic stability, rat liver microsomes; assay type: in vitro ADME

Structure (SMILES) | inhibition at 1 µM (FGFR1(h)) | GI50 (SNU16; Homo sapiens, SNU-16, 72 h) | inhibition at 1 µM (KDR(h)) | GI50 (Kato III; Homo sapiens, KATO III, 72 h) | GI50 (RT112; Homo sapiens, RT-112, 72 h) | GI50 (KG1a; Homo sapiens, KG-1a) | also measured
Cc1cc2c(F)c(Oc3ncnc(Nc4ccc(N5CCN(CCO)CC5)cc4)c3C#N)cc(F)c2[nH]1 [Compound 31] | 102% | 32 nM | 95% | 205 nM | 171 nM | 0.35 nM | 
Cc1cc2c(F)c(Oc3ncnc(Nc4ccc(N5CCN[C@@H](C)C5)cc4)c3C#N)cc(F)c2[nH]1 [Compound 34] |  |  |  |  |  |  | GI50 (Kato III): 98 nM; GI50 (RT112): 52 nM; % Inhibition at 1 μM FGFR1(h) (FGFR1(h)): 100%; GI50 (SNU16): 22 nM; % Inhibition at 1 μM KDR(h) (KDR(h); 1 μM): 89%; GI50 (KG1a): 0.28 nM
CCN1CCN(c2ccc(Nc3ncnc(Oc4cc(F)c5[nH]c(C)cc5c4F)c3C#N)cc2)CC1C (stereo not drawn) [Compound 48] | 100% | 35 nM | 84% | 152 nM | 57 nM | 0.55 nM | BWC (%) (TG1a Human AML Xenograft): −3.8%; T/C (%) (day14) (TG1a Human AML Xenograft): −72.8%
Cc1cc2c(F)c(Oc3ncnc(Nc4ccc(N5[C@H](C)CNC[C@@H]5C)cc4)c3C#N)cc(F)c2[nH]1 [Compound 49] | 101% | 24 nM | 82% | 86 nM | 48 nM | 0.6 nM | 
Cc1cc2c(F)c(Oc3ncnc(Nc4ccc(N5CCN6CCCC6C5)cc4)c3C#N)cc(F)c2[nH]1 (stereo not drawn) [Compound 50] | 101% | 52 nM | 88% | 174 nM | 49 nM | 2.91 nM | 
Cc1cc2c(F)c(Oc3ncnc(Nc4ccc(N5CCN6CCCCC6C5)cc4)c3C#N)cc(F)c2[nH]1 (stereo not drawn) [Compound 51] | 101% | 66 nM | 80% | 208 nM | 73 nM | 1.62 nM | 
C=CC(=O)Nc1cccc(Nc2ncnc(Oc3cc(F)c4[nH]c(C)cc4c3F)c2C#N)c1 [Compound 53] | 100% | 28 nM | 93% | 152 nM | 94 nM | 3.59 nM | 
C=CC(=O)Nc1ccc(Nc2ncnc(Oc3cc(F)c4[nH]c(C)cc4c3F)c2C#N)cc1 [Compound 56] | 101% | 24 nM | 94% | 106 nM | 134 nM | 5.59 nM | 
Cc1cc2c(F)c(Oc3ncnc(Nc4ccc(NC(=O)CN5CCOCC5)cc4)c3C#N)cc(F)c2[nH]1 [Compound 58] |  | 122 nM |  |  |  | 101 nM | 
Cc1cc2c(F)c(Oc3ncnc(Nc4ccc(NC(=O)CN5CCN(C)CC5)cc4)c3C#N)cc(F)c2[nH]1 [Compound 59] |  | 79 nM |  |  |  | 31 nM | 
C/C=C/C(=O)Nc1ccc(Nc2ncnc(Oc3cc(F)c4[nH]c(C)cc4c3F)c2C#N)cc1 [Compound 60] |  | 92 nM |  |  |  | 101 nM | 
Cc1cc2c(F)c(Oc3ncnc(Nc4ccc(N5C[C@@H](C)N[C@@H](C)C5)nc4)c3C#N)cc(F)c2[nH]1 [Compound 61] |  | 75 nM |  |  |  | 4 nM | 
Cc1nc(Nc2ncc(C(=O)Nc3c(C)cccc3Cl)s2)cc(N2CCN(CCO)CC2)n1 [DASATINIB, dasatinib, reference compound] |  |  |  |  |  |  | half-life [1]: 7.5 min; half-life [2]: 9.2 min; half-life [3]: 11.9 min

Further molecules by falling GI50 (SNU16; Homo sapiens, SNU-16, 72 h), results first:

inhibition at 1 µM (FGFR1(h)) | GI50 (SNU16; Homo sapiens, SNU-16, 72 h) | inhibition at 1 µM (KDR(h)) | Structure (SMILES) | GI50 (Kato III; Homo sapiens, KATO III, 72 h) | GI50 (RT112; Homo sapiens, RT-112, 72 h) | GI50 (KG1a; Homo sapiens, KG-1a) | also measured
99% | 23 nM | 93% | Cc1cc2c(F)c(Oc3ncnc(Nc4ccc(N5CCNCC5)cc4)c3C#N)cc(F)c2[nH]1 [Compound 14] | 137 nM | 76 nM | 1.6 nM | BWC (%) (TG1a Human AML Xenograft): −4.0%; T/C (%) (day14) (TG1a Human AML Xenograft): −60.6%
101% | 22 nM | 90% | Cc1cc2c(F)c(Oc3ncnc(Nc4ccc(N5CCN(C)C(C)C5)cc4)c3C#N)cc(F)c2[nH]1 (stereo not drawn) [Compound 46] | 111 nM | 48 nM | 1.37 nM | 
101% | 22 nM | 74% | CCN1[C@H](C)CN(c2ccc(Nc3ncnc(Oc4cc(F)c5[nH]c(C)cc5c4F)c3C#N)cc2)C[C@@H]1C [Compound 47] | 123 nM | 48 nM | 0.5 nM | 
100% | 20 nM | 96% | Cc1cc2c(F)c(Oc3ncnc(Nc4ccc(N5C[C@@H](C)N[C@@H](C)C5)cc4)c3C#N)ccc2[nH]1 [Compound 17] | 113 nM | 83 nM | 0.74 nM | BWC (%) (TG1a Human AML Xenograft): −5.7%; T/C (%) (day14) (TG1a Human AML Xenograft): −79.5%
101% | 15 nM | 73% | Cc1cc2c(F)c(Oc3ncnc(Nc4ccc(N5C[C@@H](C)N(C)[C@@H](C)C5)cc4)c3C#N)cc(F)c2[nH]1 [Compound 45] | 79 nM | 37 nM | 0.43 nM | BWC (%) (TG1a Human AML Xenograft): −11.7%; T/C (%) (day14) (TG1a Human AML Xenograft): 4.9%
101% | 12 nM | 89% | Cc1cc2c(F)c(Oc3ncnc(Nc4ccc(N5CCN[C@@H](C)C5)cc4)c3C#N)cc(F)c2[nH]1 [Compound 33] | 88 nM |  | 0.28 nM | GI50 (RT112): 126 nM
 | 6 nM |  | CCC(=O)Nc1ccc(Nc2ncnc(Oc3cc(F)c4[nH]c(C)cc4c3F)c2C#N)cc1 [Compound 57] |  |  | 15 nM | 
